# Starred links: 1 amine or outer side, 2 acyl side, 3 side chain; linkers in the order of their positions; H or OH if unused. Positions of bridges follow the written chain, without caps; N, C: chain ends. Non-standard residues stand in square brackets, D forms with d. Residues, ends and D or L forms follow the SMILES beside them. *: point of attachment. X33 = C[N+](C)(C)CCCCc1cn(-c2ccc(C[C@H](N[*:1])C(=O)[*:2])cc2)nn1; Me3N+(CH2)2O(CH2)2O(CH2)2CO = C[N+](C)(C)CCOCCOCCC(=O)*; X67 = COCc1cn(-c2ccc(C[C@H](N[*:1])C(=O)[*:2])cc2)nn1; Trp(7-Me) = Cc1cccc2c(C[C@H](N)C(=O)O)c[nH]c12; X9 = COCCOCCOCC[N+](C)(C)CCc1cn(CC*)nn1; 2Nal = N[C@@H](Cc1ccc2ccccc2c1)C(=O)O; X74 = C[N+]1(CCOCCOCC*)CCC(F)(F)CC1; X26 = C[N+](C)(C)CCCCc1cn(CC*)nn1; X32 = C(CCC*)CC[N+]12CCN(CC1)CC2; 3Pal = N[C@@H](Cc1cccnc1)C(=O)O; Lys(Me) = CNCCCC[C@H](N)C(=O)O; Pen = CC(C)(S)[C@H](N)C(=O)O; X70 = C[N+](C)(C)CCO/N=C\C*; X85 = C[N+](C)(C)CCO/N=C/C*; X8 = C[N+](C)(C)CCCCCCCC*; Thp = NC1(C(=O)O)CCOCC1; X3 = C[N+](C)(C)CCCCC*; Sar = CNCC(=O)O
# Assay: Exposed Polar Surface Area (EPSA)
# Assay type: physicochemical
# Settings: SFC on Chirex 3014 column; sample 1 mM DMSO stock; read-out: EPSA
# Procedure, shortened: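 Retention-based polarity: supercritical CO2 with 20 mM ammonium formate in MeOH (5–60%, 20%/min), Chirex 3014 column, 35 °C. Calibrated against 8 standards to give EPSA (Å^2); each sample measured twice.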
row,Compound,EPSA [A^2]
1,"COCCOCCOCC[N+](C)(C)CCc1cn(CCOc2ccc(C[C@H](NC(=O)[C@H]3NC(=O)[C@H](CCCCN(C)C(C)=O)NC(=O)[C@H](Cc4c[nH]c5c(C)cccc45)NC(=O)[C@H]([C@@H](C)O)NC(=O)[C@H](CC(=O)N(C)C)NC(=O)[C@@H](NC(=O)CCOCCOCC[N+](C)(C)C)C(C)(C)SSC3(C)C)C(=O)N[C@@H](Cc3ccc4ccccc4c3)C(=O)NC3(C(=O)N[C@@H](CCCCN(C)C(C)=O)C(=O)N[C@@H](CC(N)=O)C(=O)N[C@@H](Cc4cccnc4)C(=O)N(C)CC(=O)N(C)C)CCOCC3)cc2)nn1 [compound 283, cPEG3aCO-Pen(3)-N(N(Me)2)-T-7MeW-K(NMeAc)-Pen(3)-Y(OTzlChmPEG3)-2Nal-THP-K(NMeAc)-N-3Pya-Sar-CON(Me)2] ({Me3N+(CH2)2O(CH2)2O(CH2)2CO}-[Pen]D(NMe2)T[Trp(7-Me)][Lys(Me)](Ac)[Pen]Y(X9)[2Nal][Thp][Lys(Me)](Ac)N[3Pal][Sar]-NMe2; disulfide 1-6)",146
2,"CC(=O)N(C)CCCC[C@@H]1NC(=O)[C@H](Cc2c[nH]c3c(C)cccc23)NC(=O)[C@H]([C@@H](C)O)NC(=O)[C@H](CC(=O)N(C)C)NC(=O)[C@@H](NC(=O)CCOCCOCC[N+](C)(C)C)C(C)(C)SSC(C)(C)[C@@H](C(=O)N[C@@H](Cc2ccc(OCCn3cc(CCCC[N+](C)(C)C)nn3)cc2)C(=O)N[C@@H](Cc2ccc3ccccc3c2)C(=O)NC2(C(=O)N[C@@H](CCCCN(C)C(C)=O)C(=O)N[C@@H](CC(N)=O)C(=O)N[C@@H](Cc3cccnc3)C(=O)N(C)CC(=O)N(C)C)CCOCC2)NC1=O [compound 284, cPEG3aCO-Pen(3)-N(N(Me)2)-T-7MeW-K(NMeAc)-Pen(3)-Y(OTzlTMA4)-2Nal-THP-K(NMeAc)-N-3Pya-Sar-CON(Me)2] ({Me3N+(CH2)2O(CH2)2O(CH2)2CO}-[Pen]D(NMe2)T[Trp(7-Me)][Lys(Me)](Ac)[Pen]Y(X26)[2Nal][Thp][Lys(Me)](Ac)N[3Pal][Sar]-NMe2; disulfide 1-6)",151
3,"CC(=O)N(C)CCCC[C@@H]1NC(=O)[C@H](Cc2c[nH]c3c(C)cccc23)NC(=O)[C@H]([C@@H](C)O)NC(=O)[C@H](CC(=O)N(C)C)NC(=O)[C@@H](NC(=O)CCOCCOCC[N+](C)(C)C)C(C)(C)SSC(C)(C)[C@@H](C(=O)N[C@@H](Cc2ccc(OCCCCCC[N+]34CCN(CC3)CC4)cc2)C(=O)N[C@@H](Cc2ccc3ccccc3c2)C(=O)NC2(C(=O)N[C@@H](CCCCN(C)C(C)=O)C(=O)N[C@@H](CC(N)=O)C(=O)N[C@@H](Cc3cccnc3)C(=O)N(C)CC(=O)N(C)C)CCOCC2)NC1=O [compound 292, cPEG3aCO-Pen(3)-N(N(Me)2)-T-7MeW-K(NMeAc)-Pen(3)-Diazabiclyclooctane6F-2Nal-THP-K(NMeAc)-N-3Pya-Sar-CON(Me)2] ({Me3N+(CH2)2O(CH2)2O(CH2)2CO}-[Pen]D(NMe2)T[Trp(7-Me)][Lys(Me)](Ac)[Pen]Y(X32)[2Nal][Thp][Lys(Me)](Ac)N[3Pal][Sar]-NMe2; disulfide 1-6)",152
4,"CC(=O)N(C)CCCC[C@@H]1NC(=O)[C@H](Cc2c[nH]c3c(C)cccc23)NC(=O)[C@H]([C@@H](C)O)NC(=O)[C@H](CC(=O)N(C)C)NC(=O)[C@@H](NC(=O)CCOCCOCC[N+](C)(C)C)C(C)(C)SSC(C)(C)[C@@H](C(=O)N[C@@H](Cc2ccc(OCCCCCCCC[N+](C)(C)C)cc2)C(=O)N[C@@H](Cc2ccc3ccccc3c2)C(=O)NC2(C(=O)N[C@@H](CCCCN(C)C(C)=O)C(=O)N[C@@H](CC(N)=O)C(=O)N[C@@H](Cc3cccnc3)C(=O)N(C)CC(=O)N(C)C)CCOCC2)NC1=O [compound 295, cPEG3aCO-Pen(3)-N(N(Me)2)-T-7MeW-K(NMeAc)-Pen(3)-TMA8F-2Nal-THP-K(NMeAc)-N-3Pya-Sar-CON(Me)2] ({Me3N+(CH2)2O(CH2)2O(CH2)2CO}-[Pen]D(NMe2)T[Trp(7-Me)][Lys(Me)](Ac)[Pen]Y(X8)[2Nal][Thp][Lys(Me)](Ac)N[3Pal][Sar]-NMe2; disulfide 1-6)",150
5,"CC(=O)N(C)CCCC[C@@H]1NC(=O)[C@H](Cc2c[nH]c3c(C)cccc23)NC(=O)[C@H]([C@@H](C)O)NC(=O)[C@H](CC(=O)N(C)C)NC(=O)[C@@H](NC(=O)CCOCCOCC[N+](C)(C)C)C(C)(C)SSC(C)(C)[C@@H](C(=O)N[C@@H](Cc2ccc(OCCOCCOCC[N+]3(C)CCC(F)(F)CC3)cc2)C(=O)N[C@@H](Cc2ccc3ccccc3c2)C(=O)NC2(C(=O)N[C@@H](CCCCN(C)C(C)=O)C(=O)N[C@@H](CC(N)=O)C(=O)N[C@@H](Cc3cccnc3)C(=O)N(C)CC(=O)N(C)C)CCOCC2)NC1=O [compound 298, cPEG3aCO-Pen(3)-N(N(Me)2)-T-7MeW-K(NMeAc)-Pen(3)-dFPPEG3F-2Nal-THP-K(NMeAc)-N-3Pya-Sar-CON(Me)2] ({Me3N+(CH2)2O(CH2)2O(CH2)2CO}-[Pen]D(NMe2)T[Trp(7-Me)][Lys(Me)](Ac)[Pen]Y(X74)[2Nal][Thp][Lys(Me)](Ac)N[3Pal][Sar]-NMe2; disulfide 1-6)",149
6,"CC(=O)N(C)CCCC[C@@H]1NC(=O)[C@H](Cc2c[nH]c3c(C)cccc23)NC(=O)[C@H]([C@@H](C)O)NC(=O)[C@H](CC(=O)N(C)C)NC(=O)[C@@H](NC(=O)CCOCCOCC[N+](C)(C)C)C(C)(C)SSC(C)(C)[C@@H](C(=O)N[C@@H](Cc2ccc(-n3cc(CCCC[N+](C)(C)C)nn3)cc2)C(=O)N[C@@H](Cc2ccc3ccccc3c2)C(=O)NC2(C(=O)N[C@@H](CCCCN(C)C(C)=O)C(=O)N[C@@H](CC(N)=O)C(=O)N[C@@H](Cc3cccnc3)C(=O)N(C)CC(=O)N(C)C)CCOCC2)NC1=O [compound 302, cPEG3aCO-Pen(3)-N(N(Me)2)-T-7MeW-K(NMeAc)-Pen(3)-F(4TzlTMA4)-] ({Me3N+(CH2)2O(CH2)2O(CH2)2CO}-[Pen]D(NMe2)T[Trp(7-Me)][Lys(Me)](Ac)[Pen][X33][2Nal][Thp][Lys(Me)](Ac)N[3Pal][Sar]-NMe2; disulfide 1-6)",155
7,"COCc1cn(-c2ccc(C[C@H](NC(=O)[C@H]3NC(=O)[C@H](CCCCN(C)C(C)=O)NC(=O)[C@H](Cc4c[nH]c5c(C)cccc45)NC(=O)[C@H]([C@@H](C)O)NC(=O)[C@H](CC(=O)N(C)C)NC(=O)[C@@H](NC(=O)CCOCCOCC[N+](C)(C)C)C(C)(C)SSC3(C)C)C(=O)N[C@@H](Cc3ccc4ccccc4c3)C(=O)NC3(C(=O)N[C@@H](CCCCN(C)C(C)=O)C(=O)N[C@@H](CC(N)=O)C(=O)N[C@@H](Cc4cccnc4)C(=O)N(C)CC(=O)N(C)C)CCOCC3)cc2)nn1 [compound 303, cPEG3aCO-Pen(3)-N(N(Me)2)-T-7MeW-K(NMeAc)-Pen(3)-F(4TzlMME)-2Nal-THP-K(NMeAc)-N-3Pya-Sar-CON(Me)2] ({Me3N+(CH2)2O(CH2)2O(CH2)2CO}-[Pen]D(NMe2)T[Trp(7-Me)][Lys(Me)](Ac)[Pen][X67][2Nal][Thp][Lys(Me)](Ac)N[3Pal][Sar]-NMe2; disulfide 1-6)",152
8,"CC(=O)N(C)CCCC[C@@H]1NC(=O)[C@H](Cc2c[nH]c3c(C)cccc23)NC(=O)[C@H]([C@@H](C)O)NC(=O)[C@H](CC(=O)N(C)C)NC(=O)[C@@H](NC(=O)CCOCCOCC[N+](C)(C)C)C(C)(C)SSC(C)(C)[C@@H](C(=O)N[C@@H](Cc2ccc(OC/C=N/OCC[N+](C)(C)C)cc2)C(=O)N[C@@H](Cc2ccc3ccccc3c2)C(=O)NC2(C(=O)N[C@@H](CCCCN(C)C(C)=O)C(=O)N[C@@H](CC(N)=O)C(=O)N[C@@H](Cc3cccnc3)C(=O)N(C)CC(=O)N(C)C)CCOCC2)NC1=O [compound 305, cPEG3aCO-Pen(3)-N(N(Me)2)-T-7MeW-K(NMeAc)-Pen(3)-Y(OEOXlMECh)-2Nal-THP-K(NMeAc)-N-3Pya-Sar-CON(Me)2] ({Me3N+(CH2)2O(CH2)2O(CH2)2CO}-[Pen]D(NMe2)T[Trp(7-Me)][Lys(Me)](Ac)[Pen]Y(X85)[2Nal][Thp][Lys(Me)](Ac)N[3Pal][Sar]-NMe2; disulfide 1-6 (inferred))",153
9,"CC(=O)N(C)CCCC[C@@H]1NC(=O)[C@H](Cc2c[nH]c3c(C)cccc23)NC(=O)[C@H]([C@@H](C)O)NC(=O)[C@H](CC(=O)N(C)C)NC(=O)[C@@H](NC(=O)CCOCCOCC[N+](C)(C)C)C(C)(C)SSC(C)(C)[C@@H](C(=O)N[C@@H](Cc2ccc(OC/C=N\OCC[N+](C)(C)C)cc2)C(=O)N[C@@H](Cc2ccc3ccccc3c2)C(=O)NC2(C(=O)N[C@@H](CCCCN(C)C(C)=O)C(=O)N[C@@H](CC(N)=O)C(=O)N[C@@H](Cc3cccnc3)C(=O)N(C)CC(=O)N(C)C)CCOCC2)NC1=O [compound 306, cPEG3aCO-Pen(3)-N(N(Me)2)-T-7MeW-K(NMeAc)-Pen(3)-Y(OZOXlMECh)-2Nal-THP-K(NMeAc)-N-3Pya-Sar-CON(Me)2] ({Me3N+(CH2)2O(CH2)2O(CH2)2CO}-[Pen]D(NMe2)T[Trp(7-Me)][Lys(Me)](Ac)[Pen]Y(X70)[2Nal][Thp][Lys(Me)](Ac)N[3Pal][Sar]-NMe2; disulfide 1-6)",153
10,"CC(=O)N(C)CCCC[C@@H]1NC(=O)[C@H](Cc2c[nH]c3c(C)cccc23)NC(=O)[C@H]([C@@H](C)O)NC(=O)[C@H](CC(=O)N(C)C)NC(=O)[C@@H](NC(=O)CCOCCOCC[N+](C)(C)C)C(C)(C)SSC(C)(C)[C@@H](C(=O)N[C@@H](Cc2ccc(OCCCCC[N+](C)(C)C)cc2)C(=O)N[C@@H](Cc2ccc3ccccc3c2)C(=O)NC2(C(=O)N[C@@H](CCC(=O)N(C)C)C(=O)N[C@@H](CC(N)=O)C(=O)N[C@@H](Cc3cccnc3)C(=O)N(C)CC(=O)N(C)C)CCOCC2)NC1=O [compound 310, cPEG3aCO-Pen(3)-N(N(Me)2)-T-7MeW-K(NMeAC)-Pen(3)-TMAPF-2Nal-THP-Q(N(Me)2)-N-3Pya-Sar-CON(Me)2] ({Me3N+(CH2)2O(CH2)2O(CH2)2CO}-[Pen]D(NMe2)T[Trp(7-Me)][Lys(Me)](Ac)[Pen]Y(X3)[2Nal][Thp]E(NMe2)N[3Pal][Sar]-NMe2; disulfide 1-6)",152

# From patent US20260022143A1, “Cyclic Peptide Inhibitors of IL-23” (JANSSEN PHARMACEUTICA NV, priority 2022, published 2026)
